Laboratory results published in US20080014186A1, “Hla-A24 or Hla-A2 Binding Peptides of Parathyroid Hormone-Related Protein” (GREEN PEPTIDE CO., LTD., priority 2004, published 2008).

Tests used:
[1] = test system: PBMCs of HLA-A2^+ healthy donors and prostate cancer patients; assay: Assay for peptide-specific CTLs in PBMCs (IFN-γ ELISA, peptide-pulsed T2 cells); type: cell-based, human; settings: for INF-γ production: T2 cells
[2] = test system: IgG in plasma of HLA-A2^+ healthy donors and prostate cancer patients; assay: Peptide-specific IgG in plasma by ELISA (HLA-A2-binding PTHrP peptides); set-up: species or system human; settings: for IgG reactive to the peptide in plasma (difference of OD): 1:100-diluted plasma
Procedure: Peptide-specific IgG levels in the plasma were measured by ELISA, as previously reported. In brief, peptide (20 μg/well)-immobilized plates were blocked with Block Ace (Yukijirushi, Tokyo, Japan) and washed with 0.05% Tween20-PBS, after which 100 μl/well of plasma sample diluted with 0.05% Tween20-Block Ace was added to the plate. After 2 hours incubation at 37° C., the plates were washed and further incubated for 2 hours with a 1:1000-diluted rabbit anti-human IgG (γ-chain-specific) (DAKO, Glostrup, Denmark). The plates were washed, and then 100 μl of 1:100-diluted goat anti-rabbit IgG-conjugated horseradish peroxidase (EnVision, DAKO) was added to each well, and the plates were then incubated at room temperature for 40 min. After the plates were washed once, 100 μl/well of tetramethyl benzidine substrate solution (KPL, Guildford, UK) was added, and the reaction was stopped by the addition of 1 M phosphoric acid. The values are shown as optical density (OD) units/ml, and responses to the HIV peptide were subtracted. IgG reactive to a corresponding PTHrP peptide was judged to be positive when the difference of the OD in 1:100-diluted plasma exceeded 0.05. The results that IgG reactive to either the PTHrP102-111 or the […] peptide was detected in 8 of 10 healthy donors and in 7 of 10 prostate cancers are shown in Table 2 hereinafter.
In a similar way to Example 3, it was examined whether IgGs reactive to peptides of PTHrP 42-51 and PTHrP 59-67 could be detected in the plasma of 10 healthy donors and 10 cancer patients. The cut-off value at 1:100-diluted plasma was ODO.054.

Sequence: LLHDKGKSI [PTHrP 43-51]
- INF-γ production ([1]; HLA-A2^+ healthy donor #1 (A0201)): 17 pg/mL
- INF-γ production ([1]; HLA-A2^+ healthy donor #2 (A0201)): 21 pg/mL
- INF-γ production ([1]; HLA-A2^+ healthy donor #3 (A0201)): 23 pg/mL
- INF-γ production ([1]; HLA-A2^+ healthy donor #4 (A0201)): 27 pg/mL
- INF-γ production ([1]; HLA-A2^+ healthy donor #5 (A0206)): 0 pg/mL
- INF-γ production ([1]; HLA-A2^+ healthy donor #6 (A0206)): 0 pg/mL
- INF-γ production ([1]; HLA-A2^+ healthy donor #7 (A0206)): 0 pg/mL
- INF-γ production ([1]; HLA-A2^+ healthy donor #8 (A0206)): 0 pg/mL
- INF-γ production ([1]; HLA-A2^+ healthy donor #9 (A0206)): 0 pg/mL
- INF-γ production ([1]; HLA-A2^+ healthy donor #10 (A0207)): 0 pg/mL
- Total (donors with significant peptide-specific IFN-γ production / donors tested) ([1]; HLA-A2^+ healthy donors, p < 0.05): 0/10
- INF-γ production ([1]; HLA-A2^+ prostate cancer patient #1 (A0206)): 40 pg/mL
- INF-γ production ([1]; HLA-A2^+ prostate cancer patient #2 (A0210)): 56 pg/mL
- INF-γ production ([1]; HLA-A2^+ prostate cancer patient #3 (A0210)): 185 pg/mL
- INF-γ production ([1]; HLA-A2^+ prostate cancer patient #4 (A0206)): 0 pg/mL
- INF-γ production ([1]; HLA-A2^+ prostate cancer patient #5 (A0206)): 39 pg/mL
- INF-γ production ([1]; HLA-A2^+ prostate cancer patient #6 (A0207)): 51 pg/mL
- INF-γ production ([1]; HLA-A2^+ prostate cancer patient #7 (A0206)): 0 pg/mL
- INF-γ production ([1]; HLA-A2^+ prostate cancer patient #8 (A0206)): 23 pg/mL
- INF-γ production ([1]; HLA-A2^+ prostate cancer patient #9 (A0201)): 14 pg/mL
- INF-γ production ([1]; HLA-A2^+ prostate cancer patient #10 (A0201)): 0 pg/mL
- Total (patients with significant peptide-specific IFN-γ production / patients tested) ([1]; HLA-A2^+ prostate cancer patients, p < 0.05): 1/10
- IgG reactive to the peptide in plasma (difference of OD) ([2]; HLA-A2^+ healthy donor #1): — (IgG reactive to a corresponding peptide was judged to be positive when a difference of OD in a 1:100-diluted plasma was more than 0.054.)
- IgG reactive to the peptide in plasma (difference of OD) ([2]; HLA-A2^+ healthy donor #2): 0.102 OD
- IgG reactive to the peptide in plasma (difference of OD) ([2]; HLA-A2^+ healthy donor #3): — (IgG reactive to a corresponding peptide was judged to be positive when a difference of OD in a 1:100-diluted plasma was more than 0.054.)
- IgG reactive to the peptide in plasma (difference of OD) ([2]; HLA-A2^+ healthy donor #4): 0.155 OD
- IgG reactive to the peptide in plasma (difference of OD) ([2]; HLA-A2^+ healthy donor #5): — (IgG reactive to a corresponding peptide was judged to be positive when a difference of OD in a 1:100-diluted plasma was more than 0.054.)
- IgG reactive to the peptide in plasma (difference of OD) ([2]; HLA-A2^+ healthy donor #6): — (IgG reactive to a corresponding peptide was judged to be positive when a difference of OD in a 1:100-diluted plasma was more than 0.054.)
- IgG reactive to the peptide in plasma (difference of OD) ([2]; HLA-A2^+ healthy donor #7): — (IgG reactive to a corresponding peptide was judged to be positive when a difference of OD in a 1:100-diluted plasma was more than 0.054.)
- IgG reactive to the peptide in plasma (difference of OD) ([2]; HLA-A2^+ healthy donor #8): 0.121 OD
- IgG reactive to the peptide in plasma (difference of OD) ([2]; HLA-A2^+ healthy donor #9): — (IgG reactive to a corresponding peptide was judged to be positive when a difference of OD in a 1:100-diluted plasma was more than 0.054.)
- IgG reactive to the peptide in plasma (difference of OD) ([2]; HLA-A2^+ healthy donor #10): — (IgG reactive to a corresponding peptide was judged to be positive when a difference of OD in a 1:100-diluted plasma was more than 0.054.)
- Total (IgG-positive donors / donors tested) ([2]; HLA-A2^+ healthy donors): 3/10
- IgG reactive to the peptide in plasma (difference of OD) ([2]; HLA-A2^+ prostate cancer patient #1): — (IgG reactive to a corresponding peptide was judged to be positive when a difference of OD in a 1:100-diluted plasma was more than 0.054.)
- IgG reactive to the peptide in plasma (difference of OD) ([2]; HLA-A2^+ prostate cancer patient #2): 0.078 OD
- IgG reactive to the peptide in plasma (difference of OD) ([2]; HLA-A2^+ prostate cancer patient #3): — (IgG reactive to a corresponding peptide was judged to be positive when a difference of OD in a 1:100-diluted plasma was more than 0.054.)
- IgG reactive to the peptide in plasma (difference of OD) ([2]; HLA-A2^+ prostate cancer patient #4): — (IgG reactive to a corresponding peptide was judged to be positive when a difference of OD in a 1:100-diluted plasma was more than 0.054.)
- IgG reactive to the peptide in plasma (difference of OD) ([2]; HLA-A2^+ prostate cancer patient #5): — (IgG reactive to a corresponding peptide was judged to be positive when a difference of OD in a 1:100-diluted plasma was more than 0.054.)
- IgG reactive to the peptide in plasma (difference of OD) ([2]; HLA-A2^+ prostate cancer patient #6): 0.0895 OD
- IgG reactive to the peptide in plasma (difference of OD) ([2]; HLA-A2^+ prostate cancer patient #7): 0.0795 OD
- IgG reactive to the peptide in plasma (difference of OD) ([2]; HLA-A2^+ prostate cancer patient #8): — (IgG reactive to a corresponding peptide was judged to be positive when a difference of OD in a 1:100-diluted plasma was more than 0.054.)
- IgG reactive to the peptide in plasma (difference of OD) ([2]; HLA-A2^+ prostate cancer patient #9): — (IgG reactive to a corresponding peptide was judged to be positive when a difference of OD in a 1:100-diluted plasma was more than 0.054.)
- IgG reactive to the peptide in plasma (difference of OD) ([2]; HLA-A2^+ prostate cancer patient #10): — (IgG reactive to a corresponding peptide was judged to be positive when a difference of OD in a 1:100-diluted plasma was more than 0.054.)
- Total (IgG-positive patients / patients tested) ([2]; HLA-A2^+ prostate cancer patients): 3/10
